From patent publication US12637662B2, “Cells, islets, and organoids that evade immune detection and autoimmunity, methods of production and use thereof” (SALK INSTITUTE FOR BIOLOGICAL STUDIES, priority 2018, dated 2026)
Entries after “also recorded” stand apart in the source; their conditions may differ. Blank lines part the entries; values can stand above or below the compound they belong to.

Key:
[1] = tested on: human iPSC derived cells (islet-like organoids, MCS, HILOs); experiment: Glucose-stimulated insulin/c-peptide secretion assay (GSIS, ELISA); format: cell-based; settings: 3 mM vs 20 mM glucose
Protocol: Insulin release from intact islets was monitored using batch incubation methods as reported by E. Yoshihara et al., 2016, Cell metabolism, 23:622-634. Briefly, overnight-cultured, isolated pancreatic islets (RPMI-1640 medium supplemented with 10% (v/v) fetal bovine serum and 1% (v/v) Antibiotic-Antimycotic (Gibco)) were pre-cultured at 37° C. for 30 minutes in Krebs-Ringer bicarbonate buffer (KRBB) containing 129.4 mM NaCl, 3.7 mM KCl, 2.7 mM CaCl2), 1.3 mM KH2PO4, 1.3 mM MgSO4, 24.8 mM NaHCO3 (equilibrated with 5% CO2, 95% O2, pH 7.4), 10 mM HEPES and 0.2% (v/v) BSA (fraction V, Sigma) (KRBH) with 3 mM glucose). […] After 30 minutes, the islets were pelleted by centrifugation and secreted insulin levels were determined in the medium by Enzyme Linked Immunosorbent Assay (ELISA), (Rat/mouse Insulin ELISA KIT (Millipore) and Human Insulin ELISA KIT or ultrasensitive human c-peptide ELISA Kit (Millipore) for mouse and human islets, respectively). […] After 30 minutes, the cells were pelleted by centrifugation and c-peptide levels were determined in the supernatant medium using the human c-peptide ELISA KIT (Millipore). […]
Insulin release from intact islets was monitored using batch incubation methods (Yoshihara et al., 2010, Nat. Commun. 1:127). […] After 30 min, the cells were pelleted by centrifugation and c-peptide levels were determined by human c-peptide ELISA KIT (Millipore).

[2] = tested on: INS-1 cells; experiment: Proinsulin-NanoLuc Gaussia luciferase insulin secretion assay in INS-1 cells; format: cell-based, rat; settings: 20 mM glucose with Exendin-4
Protocol: It was previously published that a reporter construct, in which the Gaussia luciferase is placed within the c-peptide portion of proinsulin accurately measures insulin secretion without affecting β-cell function (Burns et al., 2015, Cell metabolism, 21, 126-137). Using a lentiviral system, INS-1 cells stably expressing this Gaussia luciferase were generated. Luciferase secretion from INS-1 cells stably expressing Proinsulin-NanoLuc increased with high-glucose (20 mM), high glucose with Exendin-4 (G20 mM+Ex4), and the depolarizing agent, potassium chloride, confirming the utility of this reporter system. Next, the usefulness of this reporter to measure insulin secretion in mouse or human islets transiently infected with the Proinsulin-NanoLuc reporter was evaluated. Luciferase secretion in response to 20 mM high glucose was detected in both transiently infected mouse and human islets were detected. Importantly, the assay sensitivity was sufficient that insulin secretion could be qualified at the level of single islets. […] (See, e.g., WO 2017/205511). […]

[3] = tested on: human islet-like organoids; experiment: Proinsulin-NanoLuc Gaussia luciferase insulin secretion assay in single or pooled islets/organoids; format: cell-based; settings: pooled organoids (10 to 100 per assay)
From the text: Recent studies have reported the generation of insulin producing β-like cells from hESC and hiPSC capable of secreting insulin in response to glucose (Pagliuca et al., 2014, Cell, 159, 428-439; Rezania et al., 2014, Nature Biotechnology, 32(11):1121-33; Russ et al., 2015, FMBO Journal, 34:1759-1772). […] To date, efforts have focused on the independent generation of insulin producing β-like cells, glucagon producing α-like cells, and somatostatin producing 6-like cells from hPSC. However, these approaches lack the supporting cells important for regulation, such as mesenchymal cells, adipose cells, and vasculature cells. Since the 3D structure of islets naturally enhances their function, these missing cellular components may compromise the functionality of islet-like cells clusters. […] To test this idea, single organoid proinsulin secretion assays were performed. Human islet-like organoids generated by methods described herein are morphologically identical with human islet.
Mouse islets, human islets and human islets like organoids were plated in their respective growth media with 10 μg/ml Polybrene® polymer (Santacruz). Viruses were then added. After overnight culture, cells were placed in fresh growth media. […]

[4] = tested on: PD-L1 expression in wHILOs; experiment: PD-L1 induction by IFNγ in wHILOs; format: cell-based, human
Protocol: For acute treatment, wHILOs were treated with 10 ng/ml IFNγ in the differentiation medium (S5 with 10 μM Trolox, 2 μM R428, 1 mM N-acetyl cysteine, 10 μM Alk5 inhibitor II, 1 μM T3 and 100 ng/ml rhWnt4 (recombinant human Wnt4)) for 2 hours. Cells were then washed twice with PBS prior to culturing in differentiation medium (S5 with 10 μM Trolox, 2 μM R428, 1 mM N-acetyl cysteine, 10 μM Alk5 inhibitor II, 1 μM T3 and 100 ng/ml rhWnt4) (single pulse stimulation). IFNγ exposure was repeated 3 times with washing and 24 hours resting time in differentiation medium (S5 with 10 μM Trolox, 2 μM R428, 1 mM N-acetyl cysteine, 10 μM Alk5 inhibitor II, 1 μM T3 and 100 ng/ml rhWnt4) between each IFNγ exposure (MPS stimulation) to generate wHILO^ie. After the final IFNγ pulse, cells were cultured in the tissue culture incubator for a week prior to the RNA-seq analyses (FIGS. 14A-14C), ATAC-seq analyses (FIG. 14D) and transplantation into STZ-induced diabetic C57BL6J mice (FIG. 5J) or humanized mice (FIG. 15B).
Total RNA was extracted using TRIzol reagent (Invitrogen) and RNeasy KIT (Qiagen). Reverse transcription was performed with a SuperScript III First-Strand Synthesis System kit (Invitrogen) or PrimeScript RT reagent kit (TAKARA). Real time quantitative RT-PCR (qPCR) was performed using SYBR Green (Bio-Rad).

[5] = tested on: PD-L1 expression in human islets; experiment: PD-L1 induction by IFNγ in human islets; format: cell-based; settings: 12 hours after IFNγ treatment (FIG. 12F)
[6] = tested on: chromatin accessibility in HILO cells; experiment: ATAC-Seq chromatin accessibility in HILOs; format: cell-based, human
From the text: […] D. Buenrostro et al., 2015, Current Protocols in Molecular Biology, 109:21-29. Reads were aligned by Bowtie to hg19, and peaks were called by HOMER using default settings. Differential peaks and motif analyses from 2 biological duplicates were identified using HOMER essentially as instructed (see, e.g., S. Heinz et al., 2010, J. Mol. Cell, 38:576-589). Detailed methods for HOMER are freely available, e.g., at http://http://homer.salk.edu/homer/. Briefly, the program searches against the target and background sequences for enrichment of known motifs, and returns motifs enriched with a threshold of 1.5-fold change and a p-value of less than 0.05. Promoter regions, defined as 1 kilobase (kB) upstream from the transcription start site, of genes with enhanced chromatin accessibility upon Wnt4 treatment, were interrogated for enriched motifs of 8-16 bp using HOMER motif analysis.

[7] = molecular target: PD-1 (Homo sapiens, UniProt Q15116); settings: read-out: Kd (dissociation constant), binding to PD-1; cited from earlier work
Chain of PD-1 (Q15116 25-288): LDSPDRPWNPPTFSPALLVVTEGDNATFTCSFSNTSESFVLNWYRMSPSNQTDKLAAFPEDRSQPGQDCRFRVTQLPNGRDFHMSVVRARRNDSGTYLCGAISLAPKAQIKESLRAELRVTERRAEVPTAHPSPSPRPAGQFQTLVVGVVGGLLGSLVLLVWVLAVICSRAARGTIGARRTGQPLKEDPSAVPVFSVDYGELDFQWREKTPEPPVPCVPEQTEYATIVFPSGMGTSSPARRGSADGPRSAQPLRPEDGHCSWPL

[8] = molecular target: T1, CD80 (B7-1) (Homo sapiens, UniProt P33681); settings: cited from earlier work
T1 sequence (P33681 35-288): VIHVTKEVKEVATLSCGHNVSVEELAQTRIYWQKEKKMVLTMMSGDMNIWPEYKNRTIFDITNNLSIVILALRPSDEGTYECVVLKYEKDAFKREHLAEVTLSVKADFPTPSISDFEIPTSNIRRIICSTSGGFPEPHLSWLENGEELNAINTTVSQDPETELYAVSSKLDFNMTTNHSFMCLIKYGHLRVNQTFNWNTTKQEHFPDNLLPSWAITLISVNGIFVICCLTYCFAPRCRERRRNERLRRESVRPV

[9] = molecular target: T2, CD86 (B7-2) (Homo sapiens, UniProt P42081); settings: cited from earlier work
T2 sequence (P42081 24-329): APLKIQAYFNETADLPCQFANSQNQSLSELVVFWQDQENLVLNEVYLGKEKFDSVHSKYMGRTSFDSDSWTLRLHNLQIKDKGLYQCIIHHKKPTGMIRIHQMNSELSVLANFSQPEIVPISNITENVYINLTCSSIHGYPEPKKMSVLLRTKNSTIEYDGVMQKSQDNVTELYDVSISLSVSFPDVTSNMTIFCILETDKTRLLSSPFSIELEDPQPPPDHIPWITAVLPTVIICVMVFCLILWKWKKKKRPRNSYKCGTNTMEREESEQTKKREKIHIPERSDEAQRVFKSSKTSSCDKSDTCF

[10] = tested on: human islet-like organoids; experiment: Amyloid polypeptide (hIAPP) toxicity in human islet-like organoids; format: cell-based; settings: 24 hours
From the text: The generation of functional human organs according to methods described herein provides new strategies for drug-screening and disease modeling. Specifically, functional organoids can be used as models of type 2 diabetes for drug screening.

Compound: Oc1nc(-c2ccc(C(F)(F)F)cc2)nc2c1CSCC2 [XAV939, reference compound]
glucose-stimulated insulin (c-peptide) secretion in vitro [1]: not blocked

Compound: Exendin-4
luciferase secretion (insulin secretion reporter) [2]: increased

GSIS by proinsulin luciferase secretion assay [3]: enhanced GSIS
Compound: GLP-1: incretin used for co-stimulation of insulin secretion

Compound: IFNγ: recombinant human IFNγ (R&D Systems, 285-IF) used to induce PD-L1 expression
GSIS functionality after MPS IFNγ ([1]; wHILOs): not compromised
duration of sustained PD-L1 expression after MPS ([4]; at least 3 pulses, 10 ng/ml, 2 hours per pulse): at least 7 days
PD-L1 expression after repeated short IFNγ exposures (MPS) (in words) ([4]; multiple pulse stimulation): high levels of PD-L1 protein expression; also recorded: sustained PD-L1 expression
PD-L1 induction after single IFNγ exposure (in words) ([4]; single / acute exposure): rapidly and robustly induced; also recorded: maximum PD-L1 induction; also recorded: transient
increase in PD-L1 expression [5]: approximately 20 fold
chromatin accessibility at PD-L1, IRF9, JUNB, JUND loci ([6]; after MPS IFNγ treatment): persistent increases
chromatin accessibility at IRF1, STAT1 ([6]; after acute (12 h) IFNγ treatment): not sustained

Compound: PD-L2: related molecule that shares PD-1 as a receptor
Kd [7]: 140 nM
affinity for CD80 (in words) [8]: does not have affinity
affinity for CD86 (in words) [9]: does not have affinity

Compound: hIAPP: amyloid polypeptide, an inducer of β cell loss in type 2 diabetic patients (KCNTATCATQRLANFLVHSSNNFGAILSSTNVGSNTY; Islet amyloid polypeptide; UniProt P10997 34-70, looked up)
cell cycle arrest [10]: dose-dependently induced G0/G1 arrest
